Measured values from patent US11180474B2 (BRISTOL-MYERS SQUIBB COMPANY, priority 2016, dated 2021).

What was measured:
human TLR7 = target: T1, human TLR7 (Homo sapiens, UniProt Q9NYK1); test: TLR7 inhibition reporter assay (HEK-Blue cells, SEAP reporter, gardiquimod stimulation); type: cell-based; conditions: HEK-Blue cells overexpressing human TLR7, gardiquimod 7.5 μM
T1 construct: host or cells: HEK-Blue cells
T1 sequence (Q9NYK1 27-1049): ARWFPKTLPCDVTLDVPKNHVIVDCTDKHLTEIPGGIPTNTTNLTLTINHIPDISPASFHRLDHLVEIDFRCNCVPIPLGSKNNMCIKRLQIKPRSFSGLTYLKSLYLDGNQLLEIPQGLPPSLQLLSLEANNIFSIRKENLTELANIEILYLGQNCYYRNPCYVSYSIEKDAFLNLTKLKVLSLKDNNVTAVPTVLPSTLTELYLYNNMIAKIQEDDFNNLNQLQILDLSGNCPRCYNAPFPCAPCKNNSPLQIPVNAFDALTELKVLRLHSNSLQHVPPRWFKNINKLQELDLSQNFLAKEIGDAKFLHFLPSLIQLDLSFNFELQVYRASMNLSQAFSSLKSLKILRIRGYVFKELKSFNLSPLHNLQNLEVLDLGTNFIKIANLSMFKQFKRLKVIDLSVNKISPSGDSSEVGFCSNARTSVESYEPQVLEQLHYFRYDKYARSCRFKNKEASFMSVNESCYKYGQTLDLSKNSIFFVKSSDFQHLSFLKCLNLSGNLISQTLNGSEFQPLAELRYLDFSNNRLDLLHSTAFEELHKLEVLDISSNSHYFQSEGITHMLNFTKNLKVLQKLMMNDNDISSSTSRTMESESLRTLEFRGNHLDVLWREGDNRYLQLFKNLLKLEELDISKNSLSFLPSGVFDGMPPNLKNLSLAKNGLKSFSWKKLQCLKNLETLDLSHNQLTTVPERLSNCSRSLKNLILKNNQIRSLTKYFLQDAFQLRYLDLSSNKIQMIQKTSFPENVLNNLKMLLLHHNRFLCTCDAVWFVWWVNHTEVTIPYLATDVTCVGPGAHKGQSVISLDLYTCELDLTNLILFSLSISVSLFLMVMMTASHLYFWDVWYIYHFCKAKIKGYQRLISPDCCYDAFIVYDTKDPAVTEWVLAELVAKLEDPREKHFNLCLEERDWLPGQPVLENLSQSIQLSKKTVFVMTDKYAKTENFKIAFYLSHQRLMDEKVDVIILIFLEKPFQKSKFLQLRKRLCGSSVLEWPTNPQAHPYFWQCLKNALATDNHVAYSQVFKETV
Procedure, shortened: (§1)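 Dose-response testing from 0.05 nM to 50 μM final was done on reporter cells for 22 hours at 37° C. Secreted SEAP was then detected, and inhibition was calculated as percent reduction of the agonist-plus-DMSO signal compared with wells given a known inhibitor.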

human TLR8 = target: T2, human TLR8 (Homo sapiens, UniProt Q9NR97); test: TLR8 inhibition reporter assay (HEK-Blue cells, SEAP reporter, R848 stimulation); type: cell-based; conditions: HEK-Blue cells overexpressing human TLR8, R848 15.9 μM
T2 construct: host or cells: HEK-Blue cells
T2 sequence (Q9NR97 27-1041): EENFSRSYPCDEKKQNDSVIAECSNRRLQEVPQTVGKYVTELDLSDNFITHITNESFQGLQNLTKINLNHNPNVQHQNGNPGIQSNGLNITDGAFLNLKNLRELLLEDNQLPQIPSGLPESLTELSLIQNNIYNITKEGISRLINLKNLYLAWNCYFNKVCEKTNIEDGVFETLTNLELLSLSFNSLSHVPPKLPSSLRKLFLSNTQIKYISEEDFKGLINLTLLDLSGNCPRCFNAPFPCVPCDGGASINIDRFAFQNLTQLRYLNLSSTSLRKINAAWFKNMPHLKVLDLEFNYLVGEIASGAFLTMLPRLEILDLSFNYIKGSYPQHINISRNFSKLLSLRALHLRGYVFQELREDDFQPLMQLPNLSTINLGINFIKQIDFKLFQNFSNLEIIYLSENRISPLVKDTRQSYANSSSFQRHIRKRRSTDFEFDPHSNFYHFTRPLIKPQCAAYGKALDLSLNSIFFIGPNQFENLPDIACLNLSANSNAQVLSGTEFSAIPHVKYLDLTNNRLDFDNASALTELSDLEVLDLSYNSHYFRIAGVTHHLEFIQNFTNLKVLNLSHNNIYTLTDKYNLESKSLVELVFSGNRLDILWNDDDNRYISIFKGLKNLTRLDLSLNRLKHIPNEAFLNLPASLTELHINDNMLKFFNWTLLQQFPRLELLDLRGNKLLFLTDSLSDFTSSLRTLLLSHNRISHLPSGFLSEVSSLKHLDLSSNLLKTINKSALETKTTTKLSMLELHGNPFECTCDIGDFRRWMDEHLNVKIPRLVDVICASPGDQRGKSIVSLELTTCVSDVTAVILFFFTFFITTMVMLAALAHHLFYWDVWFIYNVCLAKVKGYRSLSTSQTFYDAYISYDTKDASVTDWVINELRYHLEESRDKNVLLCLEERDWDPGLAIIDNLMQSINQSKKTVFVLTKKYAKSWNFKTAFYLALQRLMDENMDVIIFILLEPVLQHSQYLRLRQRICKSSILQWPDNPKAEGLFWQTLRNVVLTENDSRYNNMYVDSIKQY
Procedure, shortened: as §1

Row | IC50 (human TLR7) | IC50 (human TLR8) | SMILES
1 | 339 nM | 216 nM | COc1ccc(-c2[nH]c3ccc(C4CCN(C5CCN(CC6CC6)CC5)CC4)cc3c2C)cc1OC [Example 3, 5-(1′-(cyclopropylmethyl)-[1,4′-bipiperidin]-4-yl)-2-(3,4-dimethoxyphenyl)-3-methyl-1H-indole]
2 | 1160 nM | 926 nM | COc1ccc(-c2[nH]c3ccc(C4CCN(C(C)CO)CC4)cc3c2C)cc1OC (stereo not shown) [Example 43, 2-(4-(2-(3,4-dimethoxyphenyl)-3-methyl-1H-indol-5-yl)piperidin-1-yl)propan-1-ol]
3 | 468 nM | 926 nM | CCN1CCC(N2CCC(c3ccc4[nH]c(-c5ccc(OC)c(OC)c5)c(C)c4c3)CC2)CC1 [Example 44, 2-(3,4-dimethoxyphenyl)-5-(1′-ethyl-[1,4′-bipiperidin]-4-yl)-3-methyl-1H-indole]
4 | 560 nM | 616 nM | COc1ccc(-c2[nH]c3ccc(C4CCN(C5CC(C)(C)NC(C)(C)C5)CC4)cc3c2C)cc1OC [Example 48, 2-(3,4-dimethoxyphenyl)-3-methyl-5-(2′,2′,6′,6′-tetramethyl-[1,4′-bipiperidin]-4-yl)-1H-indole]
5 | 1360 nM | 260 nM | COc1ccc(-c2[nH]c3ccc(C4CCN(CC5CCCCN5C)CC4)cc3c2C)cc1OC (stereo not shown) [Example 49, 2-(3,4-dimethoxyphenyl)-3-methyl-5-(1-((1-methylpiperidin-2-yl)methyl)piperidin-4-yl)-1H-indole]
6 | 1090 nM | 510 nM | COc1ccc(-c2[nH]c3ccc(C4CCN(C5CCN(CCC(F)(F)F)CC5)CC4)cc3c2C)cc1OC [Example 50, 2-(3,4-dimethoxyphenyl)-3-methyl-5-(1′-(3,3,3-trifluoropropyl)-[1,4′-bipiperidin]-4-yl)-1H-indole]
7 | 230 nM | 333 nM | COc1ccc(-c2[nH]c3ccc(C4CCN(C5CCN(CC(O)CO)CC5)CC4)cc3c2C)cc1OC (stereo not shown) [Example 52, 3-(4-(2-(3,4-dimethoxyphenyl)-3-methyl-1H-indol-5-yl)-[1,4′-bipiperidin]-1′-yl)propane-1,2-diol]
8 | 86 nM | 293 nM | CCCCCN1CCC(N2CCC(c3ccc4[nH]c(-c5ccc(OC)c(OC)c5)c(C)c4c3)CC2)CC1 [Example 55, 2-(3,4-dimethoxyphenyl)-3-methyl-5-(1′-pentyl-[1,4′-bipiperidin]-4-yl)-1H-indole]
9 | 266 nM | 258 nM | COc1ccc(-c2[nH]c3ccc(C4CCN(C5CCN(CC6CCCCC6)CC5)CC4)cc3c2C)cc1OC [Example 58, 5-(1′-(cyclohexylmethyl)-[1,4′-bipiperidin]-4-yl)-2-(3,4-dimethoxyphenyl)-3-methyl-1H-indole]
10 | 477 nM | 187 nM | COc1ccc(-c2[nH]c3ccc(C4CCN(C5CCN(Cc6cncn6C)CC5)CC4)cc3c2C)cc1OC [Example 59, 2-(3,4-dimethoxyphenyl)-3-methyl-5-(1′-((1-methyl-1H-imidazol-5-yl)methyl)-[1,4′-bipiperidin]-4-yl)-1H-indole]
11 | 225 nM | 217 nM | COc1ccc(-c2[nH]c3ccc(C4CCN(C5CCN(C6CCCC6)CC5)CC4)cc3c2C)cc1OC [Example 62, 5-(1′-cyclopentyl-[1,4′-bipiperidin]-4-yl)-2-(3,4-dimethoxyphenyl)-3-methyl-1H-indole]
12 | 163 nM | 195 nM | COc1ccc(-c2[nH]c3ccc(C4CCN(C5CCN(Cc6cccs6)CC5)CC4)cc3c2C)cc1OC [Example 64, 2-(3,4-dimethoxyphenyl)-3-methyl-5-(1′-(thiophen-2-ylmethyl)-[1,4′-bipiperidin]-4-yl)-1H-indole]
13 | 24000 nM | 41400 nM | COc1ccc(-c2[nH]c3ccc(C4CCN(C5CCN(CC6CCCC6)CC5)CC4)cc3c2C)cc1OC [Example 65, 5-(1′-(cyclopentylmethyl)-[1,4′-bipiperidin]-4-yl)-2-(3,4-dimethoxyphenyl)-3-methyl-1H-indole]
14 | 288 nM | 182 nM | COc1ccc(-c2[nH]c3ccc(C4CCN(C5CCN(C6CCCCC6)CC5)CC4)cc3c2C)cc1OC [Example 68, 5-(1′-cyclohexyl-[1,4′-bipiperidin]-4-yl)-2-(3,4-dimethoxyphenyl)-3-methyl-1H-indole]
15 | 238 nM | 317 nM | COc1ccc(-c2[nH]c3ccc(C4CCN(C5CCN(CC(C)(C)CO)CC5)CC4)cc3c2C)cc1OC [Example 69, 3-(4-(2-(3,4-dimethoxyphenyl)-3-methyl-1H-indol-5-yl)-[1,4′-bipiperidin]-1′-yl)-2,2-dimethylpropan-1-ol]
16 | 563 nM | 312 nM | COc1ccc(-c2[nH]c3ccc(C4CCN(C5CCN(Cc6nccs6)CC5)CC4)cc3c2C)cc1OC [Example 72, 2-((4-(2-(3,4-dimethoxyphenyl)-3-methyl-1H-indol-5-yl)-[1,4′-bipiperidin]-1′-yl)methyl)thiazole]
17 | 1080 nM | 102 nM | COc1ccc(-c2[nH]c3ccc(C4CCN(C5CCN(CC6CCOC6)CC5)CC4)cc3c2C)cc1OC (stereo not shown) [Example 74]
18 | 734 nM | 325 nM | COc1ccc(-c2[nH]c3ccc(C4CCN(C5CCN(CC(C)(C)C)CC5)CC4)cc3c2C)cc1OC [Example 75, 2-(3,4-dimethoxyphenyl)-3-methyl-5-(1′-neopentyl-[1,4′-bipiperidin]-4-yl)-1H-indole]
19 | 147 nM | 238 nM | COc1ccc(-c2[nH]c3ccc(C4CCN(C5CCN(Cc6ccco6)CC5)CC4)cc3c2C)cc1OC [Example 76, 2-(3,4-dimethoxyphenyl)-5-(1′-(furan-2-ylmethyl)-[1,4′-bipiperidin]-4-yl)-3-methyl-1H-indole]
20 | 223 nM | 143 nM | COc1ccc(-c2[nH]c3ccc(C4CCN(C5CCN(Cc6cccn6C)CC5)CC4)cc3c2C)cc1OC [Example 78, 2-(3,4-dimethoxyphenyl)-3-methyl-5-(1′-((1-methyl-1H-pyrrol-2-yl)methyl)-[1,4′-bipiperidin]-4-yl)-1H-indole]
21 | 433 nM | 284 nM | COc1ccc(-c2[nH]c3ccc(C4CCN(C5CCN(C6CCC(C)CC6)CC5)CC4)cc3c2C)cc1OC (stereo not shown) [Example 80, 2-(3,4-dimethoxyphenyl)-3-methyl-5-(1′-(4-methylcyclohexyl)-[1,4′-bipiperidin]-4-yl)-1H-indole]
22 | 490 nM | 143 nM | COc1ccc(-c2[nH]c3ccc(C4CCN(C5CCN(C6CCC(O)CC6)CC5)CC4)cc3c2C)cc1OC (stereo not shown) [Example 84, 4-(4-(2-(3,4-dimethoxyphenyl)-3-methyl-1H-indol-5-yl)-[1,4′-bipiperidin]-1′-yl)cyclohexan-1-ol]
23 | 829 nM | 352 nM | COc1ccc(-c2[nH]c3ccc(C4CCN(C5CCCN(C)CC5)CC4)cc3c2C)cc1OC (stereo not shown) [Example 91, 2-(3,4-dimethoxyphenyl)-3-methyl-5-(1-(1-methylazepan-4-yl)piperidin-4-yl)-1H-indole]
